Measurements published in paper PMC4601640, “Stability of the Human Hsp90-p50^Cdc37 Chaperone Complex against Nucleotides and Hsp90 Inhibitors, and the Influence of Phosphorylation by Casein Kinase 2” (Molecules, 2015).
“Also recorded” adds a separate entry of the source. Where two headings read alike, the source gives them in different places.

Experiments:
[1] = target: T1, ΔHsp90-p50^Cdc37 (Homo sapiens, UniProt P08238, DEL220-271/E274G/I272G/K273G/K275G); experiment: ELISA complex formation, ΔHsp90; assay type: binding
T1 construct: human Hsp90β (1-724 Δ220-275); made in house; host or cells: E. coli BL21 Star (DE3) (ΔHsp90β); E. coli BL21 (DE3) (GST-p50Cdc37)

[2] = target: T2, Hsp90-p50^Cdc37 (Homo sapiens, UniProt P08238); experiment: ELISA complex formation, immobilized GST-p50^Cdc37 and Hsp90β, unphosphorylated; assay type: binding; conditions: for IC50: ELISA, Hsp90-p50^Cdc37 (unphosphorylated); for inhibitory activity against the complex: unphosphorylated or phosphorylated complex, in vitro
T2 construct: The gene encoding human full-length Hsp90β was subcloned from T47D cell line cDNA; made in house; host or cells: E. coli BL21 Star (DE3) (Hsp90β); E. coli BL21 (DE3) (GST-p50Cdc37)

[3] = target: hHsp90β-FL; conditions: read-out: Reported Kd, cited from earlier work
[4] = target: T3, hHsp90β-FL (Homo sapiens, UniProt P08238); experiment: ITC direct binding to full-length Hsp90β; conditions: for Kd: unphosphorylated hHsp90β-FL, 30 °C, read-out: Observed Kd
T3 construct: The gene encoding human full-length Hsp90β was subcloned from T47D cell line cDNA; His6 (N); made in house; host or cells: E. coli BL21 Star (DE3)
Experimental: (§1) Binding of p50^Cdc37 and small molecules to Hsp90 was analyzed using a MicroCal iTC200 titration calorimeter (GE Healthcare). Compounds or p50^Cdc37 were titrated into a solution of Hsp90 using the following concentrations: p50^Cdc37 (200 µM) into Hsp90 (20 µM), nucleotides (600 µM) into Hsp90 (30 µM), inhibitors (300 µM) into Hsp90 (30 µM). […] All experiments were conducted in 50 mM HEPES pH 7.5, 10 mM MgCl2 at 30 °C. For titration of inhibitors, the buffer contained 5% DMSO. […] Generation of heat due to dilution was determined in separate experiments by diluting protein into buffer and subtracting these as blank values for each injection. Corrected heat values were fitted using a nonlinear least squares curve-fitting algorithm (Microcal Origin 7.0) to obtain the stoichiometry (n), binding constants (Ka, Kd), and change in enthalpy for each enzyme-ligand interaction (ΔH).

[5] = target: T4, hΔHsp90β (Homo sapiens, UniProt P08238, DEL220-271/E274G/I272G/K273G/K275G); experiment: ITC direct binding to Hsp90β deletion mutant lacking the charged linker; conditions: 50 mM HEPES pH 7.5, 10 mM MgCl2, 30 °C, read-out: Observed Kd
T4 construct: human Hsp90β (1-724 Δ220-275); His6 (N); made in house; host or cells: E. coli BL21 Star (DE3)
Description: The gene encoding human full-length Hsp90β was subcloned from T47D cell line cDNA, and human full-length CK2α was subcloned from MCF7 cell line cDNA, both a kind gift from Dr. Jonathan Lancaster, Moffitt Cancer Center. […] The deleted sections in the two Hsp90 genes were each replaced by four glycine residues. Hsp90α and Hsp90β were subcloned into the pET28a vector (Novagen), and p50^Cdc37 was subcloned into a modified pET28a vector containing a maltose-binding protein (MBP) solubility tag and a PreScission protease cleavage site using restriction enzymes BamHI and NotI (Fermentas) and T4 DNA ligase (Invitrogen) following the manufacturers’ instructions. BamHI was substituted with NdeI for full-length Hsp90β. p50^Cdc37 was also subcloned into the pGEX6P-1 vector (GE Healthcare) using the same procedure as above to provide an N-terminal GST-tag for GST pull-down and ELISA experiments. The plasmids were transformed into E. coli BL21 Star (DE3) (Hsp90α and Hsp90β, Invitrogen), Tuner (DE3) (p50^Cdc37 modified pET28a, Novagen), or BL21 (DE3) (p50^Cdc37 pGEX6P-1, Stratagene) expression strains. Transformed cells were grown in LB broth at 37 °C until the OD600 reached 0.4, then the temperature was lowered to 16 °C, and cells were induced with 0.1 mM IPTG at OD600 = 0.5–0.7. Cultures were then grown for 20–24 h before harvesting by centrifugation (30 min at 30,000× g, 4 °C).
as §1

[6] = target: (p)Hsp90-(p)p50^Cdc37 (Homo sapiens, UniProt P08238); experiment: ELISA complex formation, both proteins CK2-phosphorylated; conditions: for disruption of the phosphorylated complex: CK2-phosphorylated complex; for IC50: ELISA, (p)Hsp90-(p)p50^Cdc37 (phosphorylated complex)
Experimental: (§2) Phosphorylation of full-length Hsp90β and p50^Cdc37 was performed using purified full-length CK2α. The reaction was carried out in a 2.5 mL volume containing 50 µM Hsp90β or p50^Cdc37, 0.5 µM CK2α, 0.5 mM ATP, 20 mM Tris (pH 7.5), 50 mM KCl, and 10 mM MgCl2, and was incubated for 1 h at 30 °C. Samples were removed for analysis of phosphorylation status, and the proteins were re-buffered into 50 mM HEPES (pH 7.5), 150 mM NaCl, and 1 mM DTT (ELISA), or into 50 mM HEPES (pH 7.5) for ITC, using PD-10 gravity columns (GE Healthcare). Dephosphorylation was performed using 2.5 units of FastAP (alkaline phosphatase from Thermo Scientific) in buffer containing 10 mM Tris (pH 8.0 at 37 °C), 5 mM MgCl2, 100 mM KCl, 0.02% Triton-X 100, and 0.5 mg/mL BSA for 1 h at 37 °C.
(§3) Purified GST-p50^Cdc37 (4 µM) or control (purified GST alone, 4 µM) was added to glutathione-coated 96-well plates (Pierce) in 100 μL protein buffer (50 mM HEPES, pH 7.5, 150 mM NaCl, 10 mM MgCl2, 0.05% Tween-20, and 0.1% BSA) and incubated for 1 h at room temperature (triplicate wells per sample). […] The mixtures were then added to the wells (100 μL per well, in triplicates) and incubated for 1 h at room temperature before washing. The wells were incubated with anti-His6-tag mAb (1 mg/mL stock, Abcam), diluted 1:2000 in antibody buffer (50 mM HEPES pH 7.5, 150 mM NaCl, 10 mM MgCl2, 0.05% Tween-20, and 1% BSA) for 1 h, followed by secondary antibody (horse anti-mouse HRP-conjugated IgG, Cell Signaling Technology), diluted 1:5000 in antibody buffer, for 1.5 h at room temperature. After washing three times with 1× HBS-T and two times with 1× HBS, 200 μL HRP substrate (SigmaFast OPD) was added per well. The plates were incubated at room temperature, and the absorbance was read at 450 nm after 15 min and 30 min using a SpectraMax 340 PC plate reader (Molecular Devices). For dose-response measurements, absorption values were corrected for unspecific binding of Hsp90 to immobilized GST, and the raw data were fit to equation (1), where f(I) is the fraction of complex remaining, [I] is the concentration of the inhibitor, IC50 is the half maximal inhibitory concentration against Hsp90-p50^Cdc37 complex formation, n is the Hill slope coefficient, min is the signal remaining at high inhibitor concentrations and max is the signal of the uninhibited complex. Corrected absorption values (ΔOD) for the uninhibited Hsp90-p50^Cdc37 complex (unphosphorylated and phosphorylated) were in the range of 0.4–1.0. Data were expressed relative to the respective max value of Equation (1). (1) f(I)=min+(max−min)/1+([I]/IC50)^n

[7] = target: h(p)Hsp90β-FL (Homo sapiens, UniProt P08238); experiment: ITC direct binding to CK2-phosphorylated full-length Hsp90β; conditions: 30 °C, read-out: Observed Kd
Experimental: as §1

[8] = target: (p)Hsp90-p50^Cdc37 (Homo sapiens, UniProt P08238); experiment: ELISA complex formation, CK2-phosphorylated Hsp90β; conditions: ELISA
Experimental: as §2, §3

[9] = target: yHsp82-FL; conditions: yHsp82-FL; ref [34]; read-out: Reported Kd; cited from earlier work
[10] = system: Hsp90β-p50^Cdc37 complex; design: method as in PMID 19858214; conditions: ref [26]; cited from earlier work
[11] = target: T5, Hsp90-(p)p50^Cdc37 (Homo sapiens, UniProt P08238); experiment: ELISA complex formation, CK2-phosphorylated p50^Cdc37; assay type: binding
T5 construct: The gene encoding human full-length Hsp90β was subcloned from T47D cell line cDNA; made in house; host or cells: E. coli BL21 Star (DE3) (Hsp90β); E. coli BL21 (DE3) (GST-p50Cdc37)

[12] = target: T6, ΔHsp90β interaction with GST-p50^Cdc37 (Homo sapiens, UniProt P08238, DEL220-271/E274G/I272G/K273G/K275G); experiment: GST pull-down of ΔHsp90β with GST-p50^Cdc37; assay type: binding; conditions: for effect on complex in GST pull-down: 1 mM nucleotide or 0.1 mM inhibitor, 15 min incubation, SDS-PAGE
T6 construct: human Hsp90β (1-724 Δ220-275); made in house; host or cells: E. coli BL21 Star (DE3) (ΔHsp90β); E. coli BL21 (DE3) (GST-p50Cdc37)
Experimental: GST pull-down experiments were carried out using 1 mL GST 4 FastFlow resin in 8 mL Flex columns (Kontes). All experiments were performed at room temperature by gravity flow. Loading and wash buffers contained 50 mM Tris pH 8, 50 mM KCl, 5 mM MgCl2, and 5% DMSO. The elution buffer contained an additional 10 mM reduced glutathione. […] The resin was washed with 20 CV wash buffer, and samples were eluted with 2 CV elution buffer. Eluted protein was analysed on 12% SDS-PAGE stained with Coomassie blue for visualization.

[13] = target: T7, interaction of the N-terminal domain of Hsp90β with p50^Cdc37 (Homo sapiens, UniProt P08238); experiment: ITC of N-terminal Hsp90β with p50^Cdc37 in the presence of ADP; assay type: binding; conditions: 5 mM ADP
T7 construct: human N-terminal Hsp90β (1-219, denoted Hsp90β-N); His6 (N); made in house; host or cells: E. coli BL21 Star (DE3) (Hsp90β-N); E. coli Tuner (DE3) (p50Cdc37)
Experimental: Binding of p50^Cdc37 and small molecules to Hsp90 was analyzed using a MicroCal iTC200 titration calorimeter (GE Healthcare). Compounds or p50^Cdc37 were titrated into a solution of Hsp90 using the following concentrations: p50^Cdc37 (200 µM) into Hsp90 (20 µM), nucleotides (600 µM) into Hsp90 (30 µM), inhibitors (300 µM) into Hsp90 (30 µM). Titrations of compounds into p50^Cdc37 were performed with similar compound/protein ratios. All experiments were conducted in 50 mM HEPES pH 7.5, 10 mM MgCl2 at 30 °C. For titration of inhibitors, the buffer contained 5% DMSO. Typically, an initial 0.5 µL injection was followed by 19 injections of 2.2 µL of syringe solution (compound or p50^Cdc37) into a 200 µL protein solution of Hsp90 constantly stirred at 1000 rpm, and data were recorded for 180 s between injections. Generation of heat due to dilution was determined in separate experiments by diluting protein into buffer and subtracting these as blank values for each injection. Corrected heat values were fitted using a nonlinear least squares curve-fitting algorithm (Microcal Origin 7.0) to obtain the stoichiometry (n), binding constants (Ka, Kd), and change in enthalpy for each enzyme-ligand interaction (ΔH).

[14] = system: yeast Hsp90 complex formation with human p50^Cdc37 or yeast Cdc37 protein; design: method as in PMID 11916974; conditions: ref [39]; cited from earlier work

T4 sequence (P08238 with tags, fused parts or gaps DEL220-271/I272G/K273G/E274G/K275G): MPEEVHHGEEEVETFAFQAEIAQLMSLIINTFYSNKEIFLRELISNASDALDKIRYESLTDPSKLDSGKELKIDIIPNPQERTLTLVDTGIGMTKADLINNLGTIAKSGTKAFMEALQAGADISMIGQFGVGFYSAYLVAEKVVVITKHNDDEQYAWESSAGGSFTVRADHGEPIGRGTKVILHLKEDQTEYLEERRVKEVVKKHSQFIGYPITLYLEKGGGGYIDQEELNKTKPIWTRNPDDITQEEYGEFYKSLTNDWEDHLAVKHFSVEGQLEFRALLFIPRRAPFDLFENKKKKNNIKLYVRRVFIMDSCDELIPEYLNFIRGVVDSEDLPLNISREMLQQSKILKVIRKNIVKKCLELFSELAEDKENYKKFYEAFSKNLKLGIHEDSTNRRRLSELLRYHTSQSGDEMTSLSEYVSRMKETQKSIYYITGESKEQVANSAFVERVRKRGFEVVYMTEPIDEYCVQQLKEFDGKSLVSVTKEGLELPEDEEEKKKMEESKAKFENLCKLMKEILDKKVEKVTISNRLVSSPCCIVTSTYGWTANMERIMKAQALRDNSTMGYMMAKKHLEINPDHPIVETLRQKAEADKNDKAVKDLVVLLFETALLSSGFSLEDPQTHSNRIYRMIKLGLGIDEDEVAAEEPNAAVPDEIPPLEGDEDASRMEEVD
T6 sequence (P08238 with tags, fused parts or gaps DEL220-271/I272G/K273G/E274G/K275G): as above
T1 sequence (P08238 with tags, fused parts or gaps DEL220-271/I272G/K273G/E274G/K275G): as above
(p)Hsp90-p50^Cdc37, sequence (P08238 whole entry): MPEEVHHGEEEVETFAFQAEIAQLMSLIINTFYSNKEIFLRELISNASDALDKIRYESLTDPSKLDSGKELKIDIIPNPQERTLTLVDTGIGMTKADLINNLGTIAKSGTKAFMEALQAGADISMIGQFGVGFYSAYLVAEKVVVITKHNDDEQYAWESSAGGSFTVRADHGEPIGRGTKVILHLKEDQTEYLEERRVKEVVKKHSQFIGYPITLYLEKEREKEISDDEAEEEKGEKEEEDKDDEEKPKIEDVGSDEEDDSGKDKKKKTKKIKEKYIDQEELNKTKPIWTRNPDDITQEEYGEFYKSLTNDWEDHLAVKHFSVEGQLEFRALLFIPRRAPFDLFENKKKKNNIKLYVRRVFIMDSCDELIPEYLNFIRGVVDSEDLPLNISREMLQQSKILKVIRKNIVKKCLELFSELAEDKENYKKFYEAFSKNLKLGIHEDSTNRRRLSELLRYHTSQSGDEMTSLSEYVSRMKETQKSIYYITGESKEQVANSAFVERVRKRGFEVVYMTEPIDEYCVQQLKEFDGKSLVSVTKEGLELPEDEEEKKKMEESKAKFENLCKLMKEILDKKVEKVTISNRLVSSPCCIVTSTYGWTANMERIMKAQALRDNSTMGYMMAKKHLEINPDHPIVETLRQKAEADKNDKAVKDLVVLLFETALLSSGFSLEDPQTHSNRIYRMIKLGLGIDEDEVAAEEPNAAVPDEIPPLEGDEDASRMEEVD
h(p)Hsp90β-FL, sequence (P08238 whole entry): as above
(p)Hsp90-(p)p50^Cdc37, sequence (P08238 whole entry): as above
T7 sequence (P08238 1-219): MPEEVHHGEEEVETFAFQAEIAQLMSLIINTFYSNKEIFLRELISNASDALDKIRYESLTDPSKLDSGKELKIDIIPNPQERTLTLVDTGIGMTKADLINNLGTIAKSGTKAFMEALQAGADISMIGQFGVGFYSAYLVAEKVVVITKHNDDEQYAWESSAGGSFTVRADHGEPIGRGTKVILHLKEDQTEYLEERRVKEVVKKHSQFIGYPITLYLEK

IC50 [1]	IC50 [2]	Kd [4]	Kd [5]	IC50 [6]	Kd [7]	IC50 ([8]; (p)Hsp90-p50^Cdc37)	effect on complex in GST pull-down [12]	Compound	inhibitory activity against the complex [2]	Kd ([3]; ref [31])	effect on complex formation between Hsp90β and p50^Cdc37 [10]	also measured
> 1000 µM	> 1000 µM	85 µM	84 µM	> 1000 µM	590 µM	> 1000 µM		Nc1ncnc2c1ncn2[C@@H]1O[C@H](COP(=O)(O)OP(=O)(O)NP(=O)(O)O)[C@@H](O)[C@H]1O [AMP-PNP]	did not show appreciable inhibitory activity	148 µM		disruption of the phosphorylated complex [6]: remained largely ineffective
					1.9 ± 0.13 µM			(p)p50^Cdc37: human p50^Cdc37 phosphorylated by CK2 at residue Ser13				
> 1000 µM	> 1000 µM	4.6 µM	43 µM	230 ± 40 µM	11 µM	450 ± 150 µM	stable complex	Nc1ncnc2c1ncn2[C@@H]1O[C@H](COP(=O)(O)OP(=O)(O)OP(=O)(O)O)[C@@H](O)[C@H]1O [ATP]		240 µM		IC50 [11]: > 1000 µM; disruption of the phosphorylated complex [6]: remained largely ineffective
> 1000 µM	> 1000 µM			> 1000 µM		> 1000 µM	ineffective	O=C(O)CCc1nn(Cc2ccc(Cl)cc2Cl)c2cc(C(F)(F)F)ccc12 [H2-GMZ, H2-gamendazole]	did not show appreciable inhibitory activity			inhibitory activity against the complex ([2]; listed as H2-gamendazole): did not affect the interaction of Hsp90 with p50^Cdc37 in vitro; protection of the complex from ADP in GST pull-down competition ([12]; in the presence of ADP, 0.1 mM radicicol): had no effect; binding potential towards Hsp90β ([4]; Figure 3): failed to display binding potential

More lines, now with the values behind:

Compound	IC50 [1]	IC50 [2]	Kd [4]	Kd [5]	IC50 [6]	Kd [7]	IC50 ([8]; (p)Hsp90-p50^Cdc37)	effect on complex in GST pull-down [12]	inhibitory activity against the complex [2]	Kd ([3]; ref [31])	effect on complex formation between Hsp90β and p50^Cdc37 [10]	also measured
C[C@@H]1C[C@H]2O[C@@H]2/C=C\C=C\C(=O)Cc2c(Cl)c(O)cc(O)c2C(=O)O1 [Radicicol]												Kd [9]: 0.019 µM
CCNC(=O)c1noc(-c2cc(C(C)C)c(O)cc2O)c1-c1ccc(CN2CCOCC2)cc1 [NVP-AUY922]									did not show appreciable inhibitory activity			Kd ([3]; ref [32]): 0.0017 µM
CO[C@H]1/C=C\C=C(/C)C(=O)NC2=CC(=O)C(NCCN(C)C)=C(C[C@@H](C)C[C@H](OC)[C@H](O)[C@@H](C)/C=C(\C)[C@@H]1OC(N)=O)C2=O [17-DMAG]											showed no effect	Kd ([3]; ref [33]): 0.35 µM
Nc1ncnc2c1ncn2[C@@H]1O[C@H](COP(=O)(O)OP(=O)(O)O)[C@@H](O)[C@H]1O [ADP]	400 ± 81 µM	500 ± 94 µM	8.9 µM	11 µM	32 ± 5.6 µM	13 µM	220 ± 24 µM	inhibited formation of the complex; also recorded: caused disruption of the complex		7.2 µM	did not exert inhibitory activity; also recorded: showed no effect	IC50 [11]: 270 ± 35 µM; interaction of N-terminal Hsp90β with p50^Cdc37 in the presence of ADP [13]: abolished; IC50 ([8]; span: phosphorylation of either Hsp90 or p50^Cdc37): 220 to 270 µM
COC1=C2C[C@@H](C)C[C@H](OC)[C@H](O)[C@@H](C)/C=C(\C)[C@H](OC(N)=O)[C@@H](OC)/C=C\C=C(/C)C(=O)NC(=CC1=O)C2=O [geldanamycin]												influence on complex formation [14]: did not influence complex formation
C=CCNC1=C2C[C@@H](C)C[C@H](OC)[C@H](O)[C@@H](C)/C=C(\C)[C@H](OC(N)=O)[C@@H](OC)/C=C\C=C(/C)C(=O)NC(=CC1=O)C2=O [17-AAG, Tanespimycin]											showed no effect	
